According to patent publication US10160747B2, “Compounds and methods for kinase modulation, and indications therefor” (Plexxikon Inc., priority 2016, dated 2018):

Tests used:
[1] = test system: MOLM-14 F691L (endogenous FLT3 ITD and transfected FLT3 F691L); assay: MOLM-14 F691L cell proliferation assay (CellTiter-Glo); format: cell-based; conditions: Homo sapiens, MOLM-14, 72 h; 3 d growth, GMean
Outline: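 MOLM-14 cells (FLT3 ITD) carrying D835Y or F691L, 1×10^4 cells/well, eight 1:3 dilutions from 1 μM final, 0.2% DMSO, 3 days at 37 °C, 5% CO2. Viability by CellTiter-Glo luminescence (ATP content); IC50 from concentration-response.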

[2] = biological target: T1, BA/F3-FLT3-ITD + D835Y (Homo sapiens, UniProt P36888, D835Y, cells depend on it, form not given); assay: Engineered BA/F3 cell growth assay, FLT3 ITD/D835Y; format: cell-based, murine; conditions: 3 d growth
T1 sequence (P36888 with tags, fused parts or gaps INS600HVDFREYEYD/D835Y): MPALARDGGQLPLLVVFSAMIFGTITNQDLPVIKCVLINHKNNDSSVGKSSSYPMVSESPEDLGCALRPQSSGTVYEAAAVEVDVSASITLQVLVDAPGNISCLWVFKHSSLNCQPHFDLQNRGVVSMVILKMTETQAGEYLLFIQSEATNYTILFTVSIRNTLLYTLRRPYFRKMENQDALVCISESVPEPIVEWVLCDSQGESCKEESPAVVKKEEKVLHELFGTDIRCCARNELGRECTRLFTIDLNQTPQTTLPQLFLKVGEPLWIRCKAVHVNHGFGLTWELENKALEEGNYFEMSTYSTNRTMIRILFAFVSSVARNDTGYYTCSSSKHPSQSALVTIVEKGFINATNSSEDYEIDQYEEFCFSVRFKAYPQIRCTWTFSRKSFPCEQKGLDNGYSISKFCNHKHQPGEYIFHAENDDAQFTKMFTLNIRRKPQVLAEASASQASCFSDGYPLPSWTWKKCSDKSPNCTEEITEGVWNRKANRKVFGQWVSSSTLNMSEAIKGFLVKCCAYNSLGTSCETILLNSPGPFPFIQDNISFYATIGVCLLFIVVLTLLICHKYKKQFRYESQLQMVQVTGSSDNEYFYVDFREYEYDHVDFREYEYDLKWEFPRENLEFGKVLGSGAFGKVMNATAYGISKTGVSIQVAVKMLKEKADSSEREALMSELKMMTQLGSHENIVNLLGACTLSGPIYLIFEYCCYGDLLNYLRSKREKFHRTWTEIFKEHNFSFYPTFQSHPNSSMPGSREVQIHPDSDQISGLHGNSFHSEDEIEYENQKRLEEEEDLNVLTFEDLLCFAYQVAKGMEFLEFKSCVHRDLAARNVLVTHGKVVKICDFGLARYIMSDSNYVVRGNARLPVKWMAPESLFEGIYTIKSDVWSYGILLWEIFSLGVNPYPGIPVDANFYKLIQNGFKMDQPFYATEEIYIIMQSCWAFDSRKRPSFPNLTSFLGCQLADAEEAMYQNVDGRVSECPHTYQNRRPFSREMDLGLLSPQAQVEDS
Outline: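 Murine Ba/F3 cells transfected with full-length FLT3 ITD/D835Y, grown without IL-3 so growth depends on FLT3. Seeded at 1×10^4 cells/well, 8-point 1:3 series to 1 μM top (0.2% DMSO), 3 days at 37 °C. CellTiter-Glo luminescence (ATP) versus concentration gave IC50.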

Row | Structure (SMILES) | IC50 [1] | GI50 [2]
1 | Cn1cc(Nc2ncc(-c3ccc(CC(=O)Nc4cnc(F)c(C(C)(F)F)c4)c(F)c3)cn2)cn1 [Compound P-0105, N-[5-(1,1-difluoroethyl)-6-fluoro-3-pyridyl]-2-[2-fluoro-4-[2-[(1-methylpyrazol-4-yl)amino]pyrimidin-5-yl]phenyl]acetamide] | 0.0001 to 10 µM | 0.0001 to 10 µM
2 | Cn1cc(Nc2ncc(-c3ccc(CC(=O)Nc4cccc(S(C)(=O)=O)c4)cc3)cn2)cn1 [Compound P-0155, 2-[4-[2-[(1-methylpyrazol-4-yl)amino]pyrimidin-5-yl]phenyl]-N-(3-methylsulfonylphenyl)acetamide] | 0.0001 to 10 µM | 0.0001 to 10 µM
3 | O=C(Cc1ccc(-c2cnc3[nH]c(-c4ccccc4)cc3c2)c(F)c1)Nc1cccc(C(F)(F)F)c1 [Compound P-0003, 2-[3-fluoro-4-(2-phenyl-1H-pyrrolo[2,3-b]pyridin-5-yl)phenyl]-N-[3-(trifluoromethyl)phenyl]acetamide] | 0.0001 to 10 µM | 0.0001 to 10 µM
4 | Cn1cc(Nc2ncc(-c3ccc(CC(=O)Nc4cncc(C(C)(F)F)c4)cc3)cn2)cn1 [Compound P-0144, N-[5-(1,1-difluoroethyl)-3-pyridyl]-2-[4-[2-[(1-methylpyrazol-4-yl)amino]pyrimidin-5-yl]phenyl]acetamide] | 0.0001 to 10 µM | 0.0001 to 10 µM
5 | COc1ncc(NC(=O)Cc2ccc(-c3cnc(Nc4cn(C)cn4)nc3)cc2)cc1C(F)(F)F [Compound P-0149, N-[6-methoxy-5-(trifluoromethyl)-3-pyridyl]-2-[4-[2-[(1-methylimidazol-4-yl)amino]pyrimidin-5-yl]phenyl]acetamide] | 0.0001 to 10 µM | 0.0001 to 10 µM
6 | Cn1cc(Nc2ncc(-c3ccc(CC(=O)Nc4ccc(C(F)(F)F)cn4)cc3)cn2)cn1 [Compound P-0109, 2-[4-[2-[(1-methylpyrazol-4-yl)amino]pyrimidin-5-yl]phenyl]-N-[5-(trifluoromethyl)-2-pyridyl]acetamide] | 0.0001 to 10 µM | 0.0001 to 10 µM
7 | Cn1cc(Nc2ncc(-c3ccc(CC(=O)Nc4ccc(C(F)(F)F)cn4)c(F)c3)cn2)cn1 [Compound P-0106, 2-[2-fluoro-4-[2-[(1-methylpyrazol-4-yl)amino]pyrimidin-5-yl]phenyl]-N-[5-(trifluoromethyl)-2-pyridyl]acetamide] | 0.0001 to 10 µM | 0.0001 to 10 µM
8 | Cn1cnc(Nc2ncc(-c3ccc(CC(=O)Nc4cncc(C(C)(F)F)c4)c(F)c3)cn2)c1 [Compound P-0103, N-[5-(1,1-difluoroethyl)-3-pyridyl]-2-[2-fluoro-4-[2-[(1-methylimidazol-4-yl)amino]pyrimidin-5-yl]phenyl]acetamide] | 0.0001 to 10 µM | 0.0001 to 10 µM
9 | Cc1cc(-c2cnc3[nH]c(-c4ccccc4)cc3c2)ccc1CC(=O)Nc1cccc(C(F)(F)F)c1 [Compound P-0001, 2-[2-methyl-4-(2-phenyl-1H-pyrrolo[2,3-b]pyridin-5-yl)phenyl]-N-[3-(trifluoromethyl)phenyl]acetamide] | 0.0001 to 10 µM | 0.0001 to 10 µM
10 | COc1nn(C[C@H](C)O)cc1Nc1ncc(-c2ccc(CC(=O)Nc3cnc(C)c(C(F)(F)F)c3)cc2)cn1 [Compound P-0180, 2-[4-[2-[[1-[(2S)-2-hydroxypropyl]-3-methoxy-pyrazol-4-yl]amino]pyrimidin-5-yl]phenyl]-N-[6-methyl-5-(trifluoromethyl)-3-pyridyl]acetamide] | 0.0001 to 10 µM | 0.0001 to 10 µM
11 | Cn1cc(Nc2ncc(-c3ccc(CC(=O)Nc4cc(Cl)c(C5CC5)cn4)c(F)c3)cn2)cn1 [Compound P-0107, N-(4-chloro-5-cyclopropyl-2-pyridyl)-2-[2-fluoro-4-[2-[(1-methylpyrazol-4-yl)amino]pyrimidin-5-yl]phenyl]acetamide] | 0.0001 to 10 µM | 0.0001 to 10 µM
12 | CCc1cncc(NC(=O)Cc2ccc(-c3cnc(Nc4cnn(C)c4)nc3)cc2F)c1 [Compound P-0111, N-(5-ethyl-3-pyridyl)-2-[2-fluoro-4-[2-[(1-methylpyrazol-4-yl)amino]pyrimidin-5-yl]phenyl]acetamide] | 0.0001 to 10 µM | 0.0001 to 10 µM
13 | Cn1cc(Nc2ncc(-c3ccc(CC(=O)NCc4cncc(C(F)(F)F)c4)cc3)cn2)cn1 [Compound P-0161, 2-[4-[2-[(1-methylpyrazol-4-yl)amino]pyrimidin-5-yl]phenyl]-N-[[5-(trifluoromethyl)-3-pyridyl]methyl]acetamide] | 0.0001 to 10 µM | 0.0001 to 10 µM
14 | COc1ccccc1CNC(=O)Cc1ccc(-c2cnc(Nc3cnn(C)c3)nc2)cc1 [Compound P-0160, N-[(2-methoxyphenyl)methyl]-2-[4-[2-[(1-methylpyrazol-4-yl)amino]pyrimidin-5-yl]phenyl]acetamide] | 0.0001 to 10 µM | 0.0001 to 10 µM
15 | Cc1ncc(NC(=O)Cc2ccc(-c3cnc(Nc4cnn(C)c4)nc3)cc2)cc1C(F)(F)F [Compound P-0140, 2-[4-[2-[(1-methylpyrazol-4-yl)amino]pyrimidin-5-yl]phenyl]-N-[6-methyl-5-(trifluoromethyl)-3-pyridyl]acetamide] | 0.0001 to 10 µM | 0.0001 to 10 µM

Results, then the compound that gave them:

Row | IC50 [1] | GI50 [2] | Structure (SMILES)
16 | 0.0001 to 10 µM | 0.0001 to 10 µM | Cn1cc(Nc2ncc(-c3ccc(CC(=O)Nc4cccc(C(F)(F)F)n4)cc3)cn2)cn1 [Compound P-0152, 2-[4-[2-[(1-methylpyrazol-4-yl)amino]pyrimidin-5-yl]phenyl]-N-[6-(trifluoromethyl)-2-pyridyl]acetamide]
17 | 0.0001 to 10 µM | 0.0001 to 10 µM | Cn1cc(Nc2ncc(-c3ccc(CC(=O)Nc4cc(Cl)c(C5CC5)cn4)cc3)cn2)cn1 [Compound P-0164, N-(4-chloro-5-cyclopropyl-2-pyridyl)-2-[4-[2-[(1-methylpyrazol-4-yl)amino]pyrimidin-5-yl]phenyl]acetamide]
18 | 0.0001 to 10 µM | 0.0001 to 10 µM | Cn1cc(Nc2ncc(-c3ccc(CC(=O)Nc4cnc(Cl)c(C(F)(F)F)c4)c(F)c3)cn2)cn1 [Compound P-0092, N-[6-chloro-5-(trifluoromethyl)-3-pyridyl]-2-[2-fluoro-4-[2-[(1-methylpyrazol-4-yl)amino]pyrimidin-5-yl]phenyl]acetamide]
19 | 0.0001 to 10 µM | 0.0001 to 10 µM | O=C(Cc1ccc(-c2cnc3[nH]c(-c4ccccc4)cc3c2)cc1F)Nc1ccnc(C(F)(F)F)c1 [Compound P-0004, 2-[2-fluoro-4-(2-phenyl-1H-pyrrolo[2,3-b]pyridin-5-yl)phenyl]-N-[2-(trifluoromethyl)-4-pyridyl]acetamide]
20 | 0.0001 to 10 µM | 0.0001 to 10 µM | COc1ncc(NC(=O)Cc2ccc(-c3cnc(Nc4cnn(C)c4)nc3)cc2)cc1C(F)(F)F [Compound P-0138, N-[6-methoxy-5-(trifluoromethyl)-3-pyridyl]-2-[4-[2-[(1-methylpyrazol-4-yl)amino]pyrimidin-5-yl]phenyl]acetamide]
21 | 0.0001 to 10 µM | 0.0001 to 10 µM | Cc1ncc(NC(=O)Cc2ccc(-c3cnc(Nc4cnn(C)c4)nc3)cc2F)cc1C(F)(F)F [Compound P-0091, 2-[2-fluoro-4-[2-[(1-methylpyrazol-4-yl)amino]pyrimidin-5-yl]phenyl]-N-[6-methyl-5-(trifluoromethyl)-3-pyridyl]acetamide]
22 | 0.0001 to 10 µM | 0.0001 to 10 µM | Cn1cc(Nc2ncc(-c3ccc(CC(=O)Nc4cnc(F)c(C(C)(F)F)c4)cc3)cn2)cn1 [Compound P-0104, N-[5-(1,1-difluoroethyl)-6-fluoro-3-pyridyl]-2-[4-[2-[(1-methylpyrazol-4-yl)amino]pyrimidin-5-yl]phenyl]acetamide]
23 | 0.0001 to 10 µM | 0.0001 to 10 µM | Cn1cc(Nc2ncc(-c3ccc(CC(=O)Nc4ccc(S(C)(=O)=O)cc4)cc3)cn2)cn1 [Compound P-0156, 2-[4-[2-[(1-methylpyrazol-4-yl)amino]pyrimidin-5-yl]phenyl]-N-(4-methylsulfonylphenyl)acetamide]
24 | 0.0001 to 10 µM | 0.0001 to 10 µM | Cn1cnc(Nc2ncc(-c3ccc(CC(=O)Nc4cc(C(C)(F)F)ccn4)c(F)c3)cn2)c1 [Compound P-0102, N-[4-(1,1-difluoroethyl)-2-pyridyl]-2-[2-fluoro-4-[2-[(1-methylimidazol-4-yl)amino]pyrimidin-5-yl]phenyl]acetamide]
